Patent US20230054194A1, “Methods of Treating Cancer” (ARIAGEN, INC., priority 2018, published 2023)

Columns and labels:
MC38 = MC38 subcutaneous syngeneic colon cancer mouse model (Study 1), tumor growth inhibition; format: in vivo, mouse (C57BL/6); settings: for TGI(%) / Tumor size (Mean ± SEM): MC38 model, i.p., ARI compounds 160 mg/kg QD × 17 doses, Anti-PD-1 10 BIW × 5 doses, study end day Day 26
Experimental: (§1) In this example, the in vivo anti-tumor efficacy of ARI-001, ARI-002, ARI-003, and ARI-143 and their combinations with an anti-PD-1 antibody was evaluated using a panel of twelve subcutaneous syngeneic mouse tumor models.
(§2) Eleven subcutaneous syngeneic mouse tumor models were generated by innoculating female BALB/C or C57BL/6 mice with cancer cells at their right lower or right front flank followed by randomization as detailed in Table 4 below.
(§3) A solution of a rat monoclonal anti-mouse PD-1 antibody (isotype IgG2a, κ) at a concentration of 6.61 mg/ml was obtained from BioXcell (InVivoMAb anti-mouse PD-1 (CD279), Clone RMP1-14, Cat #BE0146)) and store at 4° C. The antibody solution was diluted with PBS to obtain a 1 mg/ml dosing solution.
(§4) ARI-001, ARI-002, and ARI-003 powder was stored at −20° C. The powder of each compound was dissolved in DMSO to obtain dosing solutions at 106.7, 80, and 53.33 mg/ml for administration to mice at 160, 120, and 80 mg/kg, respectively. ARI-143 was similarly prepared.
(§5) Twelve studies using the twelve subcutaneous syngeneic mouse tumor models were performed. In each study, 80 mice were enrolled and randomly allocated to eight different study groups, with 10 mice in each study group. The mean tumor size at randomization was approximately 80-120 mm^3 (around 100 mm^3). Randomization was performed based on “Matched distribution” randomization method (StudyDirector™ software, version 3.1.399.19). […] All the drugs and vehicle controls were injected to the mice intraperitoneally.
(§6) After tumor cell inoculation, the animals were checked daily for morbidity and mortality. At the time of routine monitoring, the animals were checked for any effects of tumor growth and treatments on behavior such as mobility, food and water consumption, body weight gain/loss (body weights were measured twice or three times per week after randomization), and any other abnormalities. Mortality and observed clinical signs were recorded for individual animals. Tumor volumes were measured twice or three times weekly after randomization in two dimensions using a caliper, and the volume was expressed in mm^3 using the formula: […]
(§7) where V is tumor volume, L is tumor length (the longest tumor dimension) and W is tumor width (the longest tumor dimension perpendicular to L).
(§8) The study was terminated when the mean tumor volume (MTV) in the vehicle group reached a value of 2,000 mm^3. Tumor growth inhibition (TGI) is an indication of antitumor activity, and expressed as: […]
(§9) where T and C are the MTV (or weight) of the treated and control groups, respectively, on a given day. Statistical analysis of the difference in MTV among the groups was conducted using the data collected on the day when the MTV of the vehicle group reached the humane endpoints, so that TGI could be derived for all or most mice enrolled in the study.
(§10) Statistical analysis of differences in MTV among the groups was conducted by Independent-Samples T Test using the data collected. All data were analyzed with SPSS (Statistical Product and Service Solutions) version 18.0 (IBM, Armonk, N.Y., U.S.). P-values were rounded to three decimal places, with the exception that raw P-values less than 0.001 were stated as P<0.001. All tests were two-sided. P<0.05 was considered to be statistically significant.
FIG. 60 is a graph showing the mean tumor volume on different study days in the study groups as indicated according to Study 1 (MC38). The study end day was Day 26.

Pan02 = Pan02 subcutaneous syngeneic pancreatic cancer mouse model (Study 3), tumor growth inhibition; format: in vivo, mouse (C57BL/6); settings: for TGI(%) / Tumor size (Mean ± SEM): Pan02 model, i.p., ARI compounds 160 mg/kg QD × 28 doses, Anti-PD-1 10 BIW × 8 doses, study end day Day 32; for anti-tumor potency of anti-PD-1 antibody combined with the compound, compared to the antibody alone: Pan02 syngeneic pancreatic cancer model
Experimental: as §1, §2, §3, §4, §5, §6, §7, §8, §9, §10
FIG. 62 is a graph showing the mean tumor volume on different study days in the study groups as indicated according to Study 3 (Pan02). The study end day was Day 32.

Renca = Renca subcutaneous syngeneic kidney cancer mouse model (Study 8), tumor growth inhibition; format: in vivo, mouse (BALB/C); settings: for Tumor size / TGI(%): Renca model, study end day Day 28; for Tumor size: Mean ± SEM, in mm³; for anti-tumor potency of anti-PD-1 antibody combined with the compound, compared to the antibody alone: Renca syngeneic kidney cancer model
Experimental: as §1, §2, §3, §4, §5, §6, §7, §8, §9, §10
FIG. 67 is a graph showing the mean tumor volume on different study days in the study groups as indicated according to Study 8 (Renca). The study end day was Day 28.

RM-1 = RM-1 subcutaneous syngeneic prostate cancer mouse model (Study 7), tumor growth inhibition; format: in vivo, mouse (C57BL/6); settings: for Tumor size / TGI(%): RM-1 model, study end day Day 19; for Tumor size: Mean ± SEM, in mm³
Experimental: as §1, §2, §3, §4, §5, §6, §7, §8, §9, §10
FIG. 66 is a graph showing the mean tumor volume on different study days in the study groups as indicated according to Study 7 (RM-1). The study end day was Day 19.

Hepa1-6 = Hepa1-6 subcutaneous syngeneic liver cancer mouse model (Study 9), tumor growth inhibition; format: in vivo, mouse (C57BL/6); settings: for Tumor size / TGI(%): Hepa1-6 model, study end day Day 26; for Tumor size: Mean ± SEM, in mm³
Experimental: as §1, §2, §3, §4, §5, §6, §7, §8, §9, §10
FIG. 68 is a graph showing the mean tumor volume on different study days in the study groups as indicated according to Study 9 (Hepal-6). The study end day was Day 26.

EMT-6 = EMT-6 subcutaneous syngeneic breast cancer mouse model (Study 2 and Study 12), tumor growth inhibition; format: in vivo, mouse (BALB/C); settings: for TGI(%) / Tumor size (Mean ± SEM): EMT-6 model (Study 2), i.p., ARI-001 160/120 mg/kg QD × 15/6 doses, ARI-002 and ARI-003 160 mg/kg QD × 21 doses, Anti-PD-1 10 BIW × 6 doses, study end day Day 27; for anti-tumor potency of anti-PD-1 antibody combined with the compound, compared to the antibody alone or the vehicle / anti-tumor potency of the compound combined with anti-PD-1 antibody, compared to being used alone: EMT-6 syngeneic breast cancer model
Experimental: as §1, §2, §3, §4, §5, §6, §7, §8, §9, §10
FIG. 61 is a graph showing the mean tumor volume on different study days in the study groups as indicated according to Study 2 (EMT-6). The study end day was Day 27.

B16F10 = B16F10 subcutaneous syngeneic melanoma mouse model (Study 10), tumor growth inhibition; format: in vivo, mouse (C57BL/6); settings: for Tumor size / TGI(%): B16F10 model, study end day Day 19; for Tumor size: Mean ± SEM, in mm³
Experimental: as §1, §2, §3, §4, §5, §6, §7, §8, §9, §10
FIG. 69 is a graph showing the mean tumor volume on different study days in the study groups as indicated according to Study 10 (B16F10). The study end day was Day 19.

CT26 = assay: CT-26 subcutaneous syngeneic colon cancer mouse model (Study 4), tumor growth inhibition; format: in vivo, mouse (BALB/C); settings: for TGI(%) / Tumor size (Mean ± SEM): CT-26 model, i.p., ARI compounds 160 mg/kg QD × 15 doses, Anti-PD-1 10 BIW × 5 doses, study end day Day 23
Experimental: as §1, §2, §3, §4, §5, §6, §7, §8, §9, §10
FIG. 63 is a graph showing the mean tumor volume on different study days in the study groups as indicated according to Study 4 (CT-26). The study end day was Day 23.

[1] = MC38 syngeneic colon cancer model
[2] = RM-1 syngeneic prostate cancer model

SMILES	TGI(%) (MC38)	Tumor size (Mean ± SEM) (MC38) [mm^3]	anti-tumor potency of anti-PD-1 antibody combined with the compound, compared to the antibody alone or the vehicle (MC38; [1])	TGI(%) (Pan02)	Tumor size (Mean ± SEM) (Pan02) [mm^3]	anti-tumor potency of anti-PD-1 antibody combined with the compound, compared to the antibody alone (Pan02)	Tumor size (Renca)	TGI(%) (Renca)	anti-tumor potency of anti-PD-1 antibody combined with the compound, compared to the antibody alone (Renca)	Tumor size (RM-1)	TGI(%) (RM-1)	anti-tumor potency of anti-PD-1 antibody combined with the compound, compared to the antibody alone (RM-1; [2])	Tumor size (Hepa1-6)	TGI(%) (Hepa1-6)	TGI(%) (EMT-6)	Tumor size (Mean ± SEM) (EMT-6) [mm^3]	anti-tumor potency of anti-PD-1 antibody combined with the compound, compared to the antibody alone or the vehicle (EMT-6)	anti-tumor potency of the compound combined with anti-PD-1 antibody, compared to being used alone (EMT-6)	Tumor size (B16F10)	TGI(%) (B16F10)	also measured
CCC(=O)c1csc(C(=O)c2c[nH]c3ccccc23)n1 [ARI-002]	45	1419.94 ± 141.48	statistically significant increase	66	308.02 ± 177.67	statistically significant increase	1101.99 ± 92.71	49	statistically significant increase	1744.11 ± 144.25	41	statistically significant increase	1018.26 ± 232.72	37	55	842.08 ± 135.38	statistically significant increase	statistically significant increase	1994.41 ± 180.33	32	anti-tumor potency of anti-PD-1 antibody combined with the compound, compared to the antibody alone or the vehicle (B16F10; B16F10 syngeneic melanoma model): statistically significant increase; TGI(%) (CT26): 51%; Tumor size (Mean ± SEM) (CT26): 1112.29 ± 124.36 mm^3; anti-tumor potency of anti-PD-1 antibody combined with the compound, compared to the antibody alone (CT26; CT-26 syngeneic colon cancer model): statistically significant increase
COC(=O)c1csc(C(=O)c2c[nH]c3ccccc23)n1 [ARI-001]	37	1624.33 ± 148.56	statistically significant increase	60	357.19 ± 232.32	statistically significant increase	1367.52 ± 118.53	36	statistically significant increase	1732.55 ± 162.92	41	statistically significant increase	1174.25 ± 229.74	27	53	871.63 ± 142.67	statistically significant increase	statistically significant increase	2089.97 ± 201.33	29	anti-tumor potency of the compound combined with anti-PD-1 antibody, compared to being used alone (MC38; [1]): statistically significant increase; anti-tumor potency of the compound combined with anti-PD-1 antibody, compared to being used alone (RM-1; [2]): statistically significant increase; anti-tumor potency of the compound combined with anti-PD-1 antibody, compared to being used alone (Hepa1-6; Hepa1-6 syngeneic liver cancer model): statistically significant increase; TGI(%) (CT26): 56%; Tumor size (Mean ± SEM) (CT26): 1015.32 ± 114.50 mm^3
